Converted amounts (≈) assume the structure as drawn. Where only a bound is given, the exact number is not on record here.

Holding throughout (format): functional
In assay [1] the test system is Staphylococcus epidermidis. The assay is described as follows: Minimum inhibitory concentration (MIC) against Staphylococcus epidermidis 178. Conditions: Staphylococcus epidermidis; read-out: MIC.
The subject of assay [2] is Acinetobacter calcoaceticus. The assay is described as follows: Minimum inhibitory concentration (MIC) against Acinetobacter calcoaceticus 15473. Conditions: Acinetobacter calcoaceticus; read-out: MIC.
The subject of assay [3] is Klebsiella aerogenes. Kind of assay: Minimum inhibitory concentration (MIC) against Klebsiella aerogenes 1082E. Conditions: Klebsiella aerogenes; read-out: MIC.
Assay [4] relates to Bacillus subtilis. The assay is described as follows: Minimum inhibitory concentration (MIC) against Bacillus subtilis ATCC 6633.
Assay [5] deals with Pseudomonas aeruginosa. Kind of assay: Minimum inhibitory concentration (MIC) against Pseudomonas aeruginosa 1912E. Conditions: Pseudomonas aeruginosa; read-out: MIC.
The test system of assay [6] is Enterobacter cloacae. The assay is described as follows: Minimum inhibitory concentration (MIC) against Enterobacter cloacae P99.
In assay [7] the test system is Enterococcus faecalis. Kind of assay: Minimum inhibitory concentration (MIC) against Streptococcus faecalis 29212. Conditions: Enterococcus faecalis; read-out: MIC.
Assay [8] relates to Escherichia coli. Kind of assay: Minimum inhibitory concentration (MIC) against Escherichia coli TEM9 2639E. Conditions: Escherichia coli; read-out: MIC.
For assay [9], the system named is Escherichia coli. The assay is described as follows: Minimum inhibitory concentration (MIC) against Escherichia coli 10536.
The subject of assay [10] is Staphylococcus aureus. The assay is described as follows: Minimum inhibitory concentration (MIC) against Staphylococcus aureus giorgio.
Assay [11] concerns Staphylococcus epidermidis. The assay is described as follows: Minimum inhibitory concentration (MIC) against Staphylococcus epidermidis 887E.
Assay [12] concerns Staphylococcus aureus. Kind of assay: Minimum inhibitory concentration (MIC) against Staphylococcus aureus 241. Conditions: Staphylococcus aureus; read-out: MIC.
Assay [13] has as its system Escherichia coli. Kind of assay: Minimum inhibitory concentration (MIC) against Escherichia coli 3190Y.
The test system of assay [14] is Staphylococcus aureus. The assay is described as follows: Minimum inhibitory concentration (MIC) against Staphylococcus aureus 6538p.
Assay [15] has as its system Acinetobacter calcoaceticus. The assay is described as follows: Minimum inhibitory concentration (MIC) against Acinetobacter calcoaceticus 5473.

One may read the MIC as the lowest concentration that inhibits growth of the organism. In the case of `CNCC1CN(c2nc3c(cc2F)c(=O)c(C(=O)O)cn3C2CC2)C/C1=N\OC` (configuration not stated), the MIC in assay [1] is 128 µg/mL (≈ 317 µM); in assay [2] it was 1 µg/mL (≈ 2.48 µM); in assay [3], 0.5 µg/mL (≈ 1.24 µM); in assay [4], 0.25 µg/mL (≈ 0.62 µM); in assay [5] it was 2 µg/mL (≈ 4.96 µM); in assay [6] it was 0.13 µg/mL (≈ 0.322 µM). The MIC in assay [7] was 0.5 µg/mL (≈ 1.24 µM); in assay [8], 0.5 µg/mL (≈ 1.24 µM); in assay [9] it was 0.063 µg/mL (≈ 0.156 µM); in assay [10], 0.13 µg/mL (≈ 0.322 µM); in [11], 0.13 µg/mL (≈ 0.322 µM); in [12], 128 µg/mL (≈ 317 µM). In addition, the MIC in assay [13] and in assay [14] was 0.063 µg/mL (≈ 0.156 µM) each time.
For the compound `CO/N=C1\CN(c2c(F)c(N)c3c(=O)c(C(=O)O)cn(C4CC4)c3c2F)CC1CN` (configuration not stated), the MIC in assay [1] is 0.25 µg/mL (≈ 0.593 µM); in assay [3], 0.016 µg/mL (≈ 0.038 µM); in assay [4], less than 0.008 µg/mL; in assay [5], 0.25 µg/mL (≈ 0.593 µM); in assay [6] it was less than 0.008 µg/mL; in assay [7] it was 0.016 µg/mL (≈ 0.038 µM). Besides, the MIC in assay [8] is 0.016 µg/mL (≈ 0.038 µM); in assay [9] it was less than 0.008 µg/mL; in assay [10], less than 0.008 µg/mL; in [11], less than 0.008 µg/mL; in assay [12], 0.25 µg/mL (≈ 0.593 µM); in assay [15], 0.031 µg/mL (≈ 0.0736 µM). Moreover, the MIC in assay [13] was 0.016 µg/mL (≈ 0.038 µM); in assay [14], less than 0.008 µg/mL.
In the case of `NCC1CN(c2nc3c(cc2F)c(=O)c(C(=O)O)cn3C2CC2)C/C1=N\O` (configuration not stated), the MIC in assay [1] is 8 µg/mL (≈ 21.3 µM); in assay [2], 0.13 µg/mL (≈ 0.346 µM); in [3], 0.13 µg/mL (≈ 0.346 µM); in assay [4], 0.016 µg/mL (≈ 0.0426 µM); in assay [5] it was 2 µg/mL (≈ 5.33 µM); in assay [6], 0.031 µg/mL (≈ 0.0826 µM). Also, the MIC in assay [7] turned out to be 0.25 µg/mL (≈ 0.666 µM); in assay [8] it was 0.13 µg/mL (≈ 0.346 µM); in assay [9] it was 0.031 µg/mL (≈ 0.0826 µM); in assay [10], 0.031 µg/mL (≈ 0.0826 µM); in assay [11] it was 0.031 µg/mL (≈ 0.0826 µM); in assay [12], 8 µg/mL (≈ 21.3 µM). The MIC in assay [13] was determined as 0.016 µg/mL (≈ 0.0426 µM); in assay [14], 0.031 µg/mL (≈ 0.0826 µM).
With `CO/N=C1\CN(c2cc3c(cc2F)c(=O)c(C(=O)O)cn3C2CC2)CC1CN` (configuration not stated), the MIC was 4 µg/mL (≈ 10.3 µM) in [1]; 0.031 µg/mL (≈ 0.0798 µM) in assay [3]; less than 0.008 µg/mL in assay [4]; 0.25 µg/mL (≈ 0.644 µM) in [5]; 0.008 µg/mL (≈ 0.0206 µM) in assay [6]; 0.031 µg/mL (≈ 0.0798 µM) in assay [7]. In addition, the minimal inhibitory concentration (MIC) in assay [8] is 0.031 µg/mL (≈ 0.0798 µM); in assay [9], less than 0.008 µg/mL; in assay [10], 0.016 µg/mL (≈ 0.0412 µM); in [11], 0.016 µg/mL (≈ 0.0412 µM); in assay [12], 4 µg/mL (≈ 10.3 µM); in assay [15] it was 0.13 µg/mL (≈ 0.335 µM). For the same compound, the MIC is less than 0.008 µg/mL in [13] and 0.008 µg/mL (≈ 0.0206 µM) in assay [14].
With `CO/N=C1\CN(c2nc3c(cc2F)c(=O)c(C(=O)O)cn3-c2ccc(F)cc2F)CC1CN` (configuration not stated), the MIC in assay [1] was 8 µg/mL (≈ 17.3 µM); in assay [2] it was 0.13 µg/mL (≈ 0.282 µM); in [3], 0.25 µg/mL (≈ 0.542 µM); in assay [4], 0.016 µg/mL (≈ 0.0347 µM); in assay [5], 0.5 µg/mL (≈ 1.08 µM); in assay [6], 0.063 µg/mL (≈ 0.137 µM). For the same compound, the minimum inhibitory concentration (MIC) in assay [7] is 0.13 µg/mL (≈ 0.282 µM); in assay [8], 0.25 µg/mL (≈ 0.542 µM); in assay [9], 0.063 µg/mL (≈ 0.137 µM); in [10], 0.031 µg/mL (≈ 0.0672 µM); in [11], 0.016 µg/mL (≈ 0.0347 µM); in [12], 8 µg/mL (≈ 17.3 µM). Further, the MIC came to 0.008 µg/mL (≈ 0.0173 µM) in assay [13] and 0.031 µg/mL (≈ 0.0672 µM) in assay [14].
`CCCO/N=C1\CN(c2nc3c(cc2F)c(=O)c(C(=O)O)cn3C2CC2)CC1CN` (configuration not stated): the MIC in assay [1] was 1 µg/mL (≈ 2.4 µM); in [2] it was 0.031 µg/mL (≈ 0.0743 µM); in assay [3], 0.13 µg/mL (≈ 0.311 µM); in assay [4] it was less than 0.008 µg/mL; in assay [5], 1 µg/mL (≈ 2.4 µM); in assay [6], less than 0.008 µg/mL. For the same compound, the MIC in assay [7] was 0.063 µg/mL (≈ 0.151 µM); in assay [8], 0.063 µg/mL (≈ 0.151 µM); in assay [9], less than 0.008 µg/mL; in assay [10] it was less than 0.008 µg/mL; in assay [11], less than 0.008 µg/mL; in [12], 2 µg/mL (≈ 4.79 µM). In addition, the MIC in assay [13] was less than 0.008 µg/mL; in assay [14], 0.008 µg/mL (≈ 0.0192 µM).
Regarding `CCO/N=C1\CN(c2nc3c(cc2F)c(=O)c(C(=O)O)cn3C2CC2)CC1CN` (configuration not stated), the MIC in assay [1] was 2 µg/mL (≈ 4.96 µM); in [2], 0.016 µg/mL (≈ 0.0397 µM); in [3] it was 0.031 µg/mL (≈ 0.0768 µM); in assay [4] it was less than 0.008 µg/mL; in assay [5], 0.5 µg/mL (≈ 1.24 µM); in assay [6], less than 0.008 µg/mL. The MIC in assay [7] is 0.063 µg/mL (≈ 0.156 µM); in assay [8], 0.031 µg/mL (≈ 0.0768 µM); in assay [9], less than 0.008 µg/mL; in assay [10], less than 0.008 µg/mL; in assay [11] it was less than 0.008 µg/mL; in assay [12] it was 2 µg/mL (≈ 4.96 µM). In addition, the MIC in [13] and in assay [14] was less than 0.008 µg/mL each time.
Consider `CO/N=C1\CN(c2nc3c(cc2F)c(=O)c(C(=O)O)cn3C2CC2)CC1CN` (stereo in doubt) [GEMIFLOXACIN], for which the MIC in assay [1] is 4 µg/mL (≈ 10.3 µM); in assay [2], 0.063 µg/mL (≈ 0.162 µM); in assay [3] it was 0.031 µg/mL (≈ 0.0796 µM); in assay [4], less than 0.008 µg/mL; in assay [5], 0.25 µg/mL (≈ 0.642 µM); in assay [6], less than 0.008 µg/mL. Besides, the MIC in [7] was 0.063 µg/mL (≈ 0.162 µM); in assay [8], 0.031 µg/mL (≈ 0.0796 µM); in assay [9], less than 0.008 µg/mL; in assay [10] it was less than 0.008 µg/mL; in assay [11], less than 0.008 µg/mL; in assay [12], 4 µg/mL (≈ 10.3 µM). For the same compound, the MIC in assay [13] and in [14] was less than 0.008 µg/mL throughout.

The values above are taken from ChEMBL document CHEMBL1130203, “Novel fluoroquinolone antibacterial agents containing oxime-substituted (aminomethyl)pyrrolidines: synthesis and antibacterial activity of 7-(4-(aminomethyl)-3-(methoxyimino)pyrrolidin-1-yl)-1-cyclopropyl-6- fluoro-4-oxo-1,4-dihydro[1,8]naphthyridine-3-carboxylic acid (LB20304)” (J Med Chem, 1997).
